Converted amounts (≈) assume the structure as drawn. Read-outs that look alike come from different tables or passages of the source.
Legend:
[1] = tested on: S. aureus SA-1199 (wild type); test: Synergistic assay with CPX against wild-type SA-1199; format: cell-based, Staphylococcus aureus; details: EPI at 3.13 µg/mL with CPX
Excerpt: (§1) This finding aligns with their mechanism of action, which involves the inhibition of NorA, which is only basally expressed in the wild‐type SA‐1199 strain.

[2] = tested on: S. aureus SA-K2378 (norA ++); test: Checkerboard assay EPI/CPX against SA-K2378; format: cell-based, Staphylococcus aureus
Experimental: (§2) Conversely, interesting results were obtained against SA‐K2378, which overexpresses the norA gene (Table 2). […] This corroborates the hypothesis that their activity is strictly related to NorA EP inhibition.
(§3) Checkerboard assays were carried out using SA‐K1902 and SA‐K2378 strains according to standard procedures.

[3] = tested on: Staphylococcus aureus SA-1199B; format: cell-based
Excerpt: For purposes of comparison, compound 1 was included as a reference.

[4] = biological target: T1, S. aureus NorA efflux pump (SA-1199B strain, overexpresses the norA gene) (Staphylococcus aureus, UniProt P0A0J7); test: EtBr efflux inhibition assay; format: cell-based; details: for inhibition at 50 µM: read-out: EtBr efflux inhibition (%), compound at 50 µM, SA-1199B
T1 construct: endogenous in cells; host or cells: S. aureus SA-1199B (overexpresses norA; isogenic parent SA-1199)
T1 sequence (P0A0J7 whole entry): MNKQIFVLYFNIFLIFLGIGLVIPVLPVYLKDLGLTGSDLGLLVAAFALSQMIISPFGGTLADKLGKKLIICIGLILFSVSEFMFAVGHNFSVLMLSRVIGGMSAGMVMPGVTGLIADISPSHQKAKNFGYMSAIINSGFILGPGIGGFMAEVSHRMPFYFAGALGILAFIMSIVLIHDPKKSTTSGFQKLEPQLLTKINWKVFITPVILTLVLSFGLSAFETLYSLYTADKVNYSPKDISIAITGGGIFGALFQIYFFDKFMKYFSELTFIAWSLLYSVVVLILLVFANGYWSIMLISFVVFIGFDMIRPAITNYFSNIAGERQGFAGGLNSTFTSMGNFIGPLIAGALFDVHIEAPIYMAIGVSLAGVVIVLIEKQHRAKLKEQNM
Experimental: EtBr efflux inhibition assays were conducted using the S. aureus SA‐1199B strain, which overexpresses the norA gene and has an A116E GrlA substitution. Each compound was tested at 50 µM (see Figure 2). The starting hit compound 1 was used as the internal standard for comparison with the previously reported data.
The cells were grown overnight in cation‐supplemented Mueller–Hinton broth (CAMHB) without any additives at 35°C. The organisms were subsequently diluted into CAMHB to obtain an optical density at 600 nm (OD600) of 0.7–0.8. Subsequently, the cells were pelleted and resuspended at an OD600 of 0.8 in 0.5 mL aliquots of CAMHB containing EtBr and carbonyl cyanide m‐chlorophenylhydrazone (CCCP) to “load” the cells with EtBr (final concentrations of 25 μM for EtBr and 100 μM for CCCP). Following 20 min of incubation at room temperature, the cells were pelleted and resuspended in 1 mL of fresh CAMHB. Immediately thereafter, 200 μL aliquots were transferred into the wells of white 96‐well plates, which either lacked or contained 50 or 10 μM of each test compound. Fluorescence was monitored continuously using a microplate reader (Infinite M200 Pro, TECAN) at excitation and emission wavelengths of 485 and 645 nm, respectively, for a period of 5 min. The experiments were conducted in triplicate, with two technical replicates per biological replicate. The efflux activity of the SA‐1199B strain was expressed as a percentage of fluorescence decrease over a 5‐min time course. The inhibition of this efflux by the test compounds was determined using the following equation: ([efflux in the absence] ‐ [efflux in the presence of test [compound])/[efflux in the absence of test compound] × 100, which yielded the percent efflux inhibition observed.
^a Experiments were performed in triplicate with two technical replicates per biological replicate. Efflux activity of SA-1199B was expressed as percent fluorescence decrease over a 5 min time course. Inhibition of this efflux by test compounds was determined using the equation [efflux in the absence] − [efflux in the presence of test [compound]/[efflux in the absence of test compound] × 100, giving the percent efflux inhibition observed.

[5] = tested on: Staphylococcus aureus SA-1199B; test: MIC determination (broth microdilution) against SA-1199B; format: cell-based; details: SA1199B
Excerpt: (§4) In this study, the S. aureus strains SA‐1199B (overexpressing norA) and its isogenic parent SA‐1199 (wild type), the pair SA‐K1902 (norA‐depleted) and SA‐K2378 (complemented with a pCU1 plasmid harboring the norA promoting and coding region from SA‐1199B), were used to test EPI activity as described in a previous study. Furthermore, the S. aureus ATCC 29213 was used as the reference strain in MIC determination experiments.

[6] = tested on: S. aureus SA-K2378 (norA ++); test: MIC evaluation against SA-K2378; format: cell-based, Staphylococcus aureus; details: Staphylococcus aureus
Excerpt: as §2, §4

[7] = tested on: S. aureus SA-1199 (wild type); test: MIC determination against wild-type SA-1199; format: cell-based; details: Staphylococcus aureus, compound alone
Excerpt: as §1

[8] = tested on: S. aureus SA-K1902 (norA-); test: Checkerboard assay EPI/CPX against SA-K1902; format: cell-based, Staphylococcus aureus
Experimental: as §3

[9] = MTT cytotoxicity assay on MCF7; format: cell-based; details: human, MCF7 cells; for viability at 72 h, 12.5 µg/mL: MCF7, 12.5 μg/mL; for viability at 72 h, 12.5 µg/mL / viability at 72 h, 25 µg/mL / viability at 72 h, 50 µg/mL / viability at 72 h, 100 µg/mL: read-out: Cytotoxicity (% cell viability); for viability at 72 h, 25 µg/mL: MCF7, 25 μg/mL; for viability at 72 h, 50 µg/mL: MCF7, 50 μg/mL; for viability at 72 h, 100 µg/mL: MCF7, 100 μg/mL; for CC50 at 72 h: MCF7, MTT
Experimental: The MTT assay was performed on two human ATCC cell lines, that is, […] (CCL‐185) and MCF7 (HTB‐22), to test the potential cytotoxic effect of the compounds, after 72 h exposure, as previously described. Each compound was tested at concentrations ranging from 12.5 to 100 μg/mL. Untreated cells were considered as controls. The percentage of viable cells was calculated as follows: % Cell viability = 100 × treated well absorbance/untreated control well absorbance. All assays were performed once in technical quadruplicate.

SMILES	synergistic effect with CPX [1]	CPX MIC ([2]; EPI at 0.2 µg/mL) [µg/mL]	N° CPX MIC reduction ([2]; EPI at 0.2 µg/mL)	CPX MIC ([2]; EPI at 0.4 µg/mL) [µg/mL]	N° CPX MIC reduction ([2]; EPI at 0.4 µg/mL)	CPX MIC ([2]; EPI at 0.8 µg/mL) [µg/mL]	N° CPX MIC reduction ([2]; EPI at 0.8 µg/mL)	CPX MIC ([2]; EPI at 1.6 µg/mL) [µg/mL]	N° CPX MIC reduction ([2]; EPI at 1.6 µg/mL)	CPX MIC ([2]; EPI at 3.13 µg/mL) [µg/mL]	N° CPX MIC reduction ([2]; EPI at 3.13 µg/mL)	inhibition at 50 µM [4] [%]	MIC [5] [µg/mL]	MIC [6] [µg/mL]	MIC [7] [µg/mL]	CPX MIC ([8]; EPI at 0.2 µg/mL) [µg/mL]	N° CPX MIC reduction ([8]; EPI at 0.2 µg/mL)	CPX MIC ([8]; EPI at 0.4 µg/mL) [µg/mL]	N° CPX MIC reduction ([8]; EPI at 0.4 µg/mL)	CPX MIC ([8]; EPI at 0.8 µg/mL) [µg/mL]	also measured
O=S1(=O)Nc2c(-c3ccc(Cl)cc3)nn(-c3ccccc3)c2-c2ccccc21 [Compound 3]	did not show any synergistic effect	0.6	2	0.6	2	0.3	4	0.16	8	0.16	8	7	25 (≈ 61.3 µM)	25 (≈ 61.3 µM)	> 50	0.08	2	0.08	2	0.08	CPX MIC ([2]; EPI at 6.25 µg/mL): 0.08 µg/mL; N° CPX MIC reduction ([2]; EPI at 6.25 µg/mL): 16; N° fold CPX MIC reduction ([3]; EPI at 3.12 µg/mL): 2 fold; N° CPX MIC reduction ([8]; EPI at 0.8 µg/mL): 2; CPX MIC ([8]; EPI at 1.6 µg/mL): 0.08 µg/mL; N° CPX MIC reduction ([8]; EPI at 1.6 µg/mL): 2; CPX MIC ([8]; EPI at 3.13 µg/mL): 0.08 µg/mL; N° CPX MIC reduction ([8]; EPI at 3.13 µg/mL): 2; CPX MIC ([8]; EPI at 6.25 µg/mL): 0.08 µg/mL; N° CPX MIC reduction ([8]; EPI at 6.25 µg/mL): 2; CPX MIC ([8]; EPI at 12.5 µg/mL): 0.08 µg/mL; N° CPX MIC reduction ([8]; EPI at 12.5 µg/mL): 2; viability at 72 h, 12.5 µg/mL [9]: 97 ± 10%; viability at 72 h, 25 µg/mL [9]: 84 ± 4%; viability at 72 h, 50 µg/mL [9]: 88 ± 4%; viability at 72 h, 100 µg/mL [9]: 66 ± 7%; CC50 at 72 h [9]: > 100 µg/mL
CN1c2c(-c3ccc(Cl)cc3)n[nH]c2-c2ccccc2S1(=O)=O [Compound 10, 3‐(4‐Chlorophenyl)‐4‐methyl‐1,4‐dihydropyrazolo[4,3‐c][1,2]benzothiazine 5,5‐dioxide]	did not show any synergistic effect	0.6	2	0.6	2	0.3	4	0.16	8	0.08	16	100	> 50	12.5 (≈ 36.1 µM)	> 50	0.08	2	0.08	2	0.08	N° fold CPX MIC reduction ([3]; EPI at 12.5 µg/mL): 4 fold; inhibition at 10 µM ([4]; read-out: EtBr efflux inhibition (%), compound at 10 µM, SA-1199B): 95%; N° CPX MIC reduction ([8]; EPI at 0.8 µg/mL): 2; CPX MIC ([8]; EPI at 1.6 µg/mL): 0.08 µg/mL; N° CPX MIC reduction ([8]; EPI at 1.6 µg/mL): 2; CPX MIC ([8]; EPI at 3.13 µg/mL): 0.08 µg/mL; N° CPX MIC reduction ([8]; EPI at 3.13 µg/mL): 2; viability at 72 h, 12.5 µg/mL [9]: 66 ± 5%; viability at 72 h, 25 µg/mL [9]: 26 ± 2%; viability at 72 h, 50 µg/mL [9]: 7 ± 1%; viability at 72 h, 100 µg/mL [9]: 6%; CC50 at 72 h [9]: ~25 µg/mL (≈ 72.3 µM)
